Data: ChEMBL document CHEMBL5154800, “Identification of N, C-capped di- and tripeptides as selective immunoproteasome inhibitors” (Eur J Med Chem, 2022)
Activity calls are given as the source filed them. The rule behind the calls is not given here.

Columns and labels:
HCT-116 [1] = assay: Antiproliferative activity against human HCT-116 cells assessed as growth inhibition measured after 72 hrs by CCK-8 assay; format: functional, cell-based; conditions: HCT-116, 72 h
HCT-116 [2] = assay: Antiproliferative activity against human HCT-116 cells assessed as growth inhibition at 0.2 uM measured after 72 hrs by MTT assay; format: functional; conditions: read-out: GI
HT-29 = assay: Antiproliferative activity against human HT-29 cells assessed as growth inhibition at 0.2 uM measured after 72 hrs by MTT assay; format: functional; conditions: read-out: GI
Pfeiffer = assay: Antiproliferative activity against human Pfeiffer cells assessed as growth inhibition at 0.2 uM measured after 72 hrs by MTT assay; format: functional; conditions: read-out: GI
DOHH-2 = assay: Antiproliferative activity against human DOHH-2 cells assessed as growth inhibition at 0.2 uM measured after 72 hrs by MTT assay; format: functional; conditions: read-out: GI
MCF7 = assay: Antiproliferative activity against human MCF7 cells assessed as growth inhibition at 0.2 uM measured after 72 hrs by MTT assay; format: functional; conditions: read-out: GI
[3] = Selectivity ratio of IC50 for inhibition of 20S proteasome beta 5c subunit (unknown origin) to IC50 for inhibition of 20S proteasome subunit beta-5i
THP-1 [4] = assay: Antiinflammatory activity against LPS-stimulated human THP-1 cells assessed inhibition of IL-6 release at 40 uM measured by ELISA; format: functional, cell-based
THP-1 [5] = assay: Antiinflammatory activity against LPS-stimulated human THP-1 cells assessed inhibition of TNF-alpha release at 40 uM measured by ELISA; format: functional, cell-based
[6] = target: T1, Proteasome subunit beta type-9 (Homo sapiens, UniProt P28065); assay: Inhibition of 20S proteasome subunit beta-1i (unknown origin) using Ac-PAL-AMC as substrate and measured after 30 mins
T1 sequence (P28065 whole entry): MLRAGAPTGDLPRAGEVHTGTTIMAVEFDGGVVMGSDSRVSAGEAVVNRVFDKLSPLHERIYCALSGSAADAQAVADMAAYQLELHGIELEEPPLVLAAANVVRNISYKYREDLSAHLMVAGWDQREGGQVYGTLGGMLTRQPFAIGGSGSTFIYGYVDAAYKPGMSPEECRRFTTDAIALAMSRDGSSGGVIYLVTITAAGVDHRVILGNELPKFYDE

[7] = target: T2, Proteasome subunit beta type-10 (Homo sapiens, UniProt P40306); assay: Inhibition of 20S proteasome subunit beta-2i (unknown origin) using Ac-KQL-AMC as substrate and measured after 30 mins
T2 sequence (P40306 whole entry): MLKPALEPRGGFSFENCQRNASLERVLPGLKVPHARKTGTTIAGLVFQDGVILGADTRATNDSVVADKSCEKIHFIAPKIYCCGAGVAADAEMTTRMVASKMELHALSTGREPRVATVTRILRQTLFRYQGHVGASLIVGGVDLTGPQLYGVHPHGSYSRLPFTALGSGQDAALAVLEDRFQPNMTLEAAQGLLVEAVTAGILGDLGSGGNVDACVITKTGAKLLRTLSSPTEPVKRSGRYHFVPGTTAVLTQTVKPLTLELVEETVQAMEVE

[8] = target: T3, Proteasome Macropain subunit MB1 (Homo sapiens, UniProt P28074); assay: Inhibition of 20S proteasome subunit beta-5c (unknown origin) using Ac-WLA-AMC as substrate and measured after 30 mins
T3 sequence (P28074 whole entry): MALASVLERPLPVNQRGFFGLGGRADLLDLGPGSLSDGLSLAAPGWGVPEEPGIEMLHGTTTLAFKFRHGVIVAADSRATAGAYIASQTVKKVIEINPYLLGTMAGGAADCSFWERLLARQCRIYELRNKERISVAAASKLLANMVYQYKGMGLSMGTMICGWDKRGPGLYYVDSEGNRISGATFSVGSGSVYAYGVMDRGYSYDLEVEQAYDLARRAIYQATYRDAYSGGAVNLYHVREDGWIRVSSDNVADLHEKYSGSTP

[9] = target: T4, Proteasome subunit beta type-8 (Homo sapiens, UniProt P28062); assay: Inhibition of 20S proteasome subunit beta-5i (unknown origin) using Ac-ANW-AMC as substrate and measured after 30 mins
T4 sequence (P28062 whole entry): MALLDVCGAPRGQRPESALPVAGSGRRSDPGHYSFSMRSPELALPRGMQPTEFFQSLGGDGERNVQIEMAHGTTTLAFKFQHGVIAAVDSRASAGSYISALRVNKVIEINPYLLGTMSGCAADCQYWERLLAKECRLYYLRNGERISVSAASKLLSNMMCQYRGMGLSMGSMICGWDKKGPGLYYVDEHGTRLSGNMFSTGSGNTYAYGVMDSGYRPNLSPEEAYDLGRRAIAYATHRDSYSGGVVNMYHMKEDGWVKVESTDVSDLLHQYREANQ

Compound	IC50 (HCT-116 [1]) [nM]	Ratio IC50 [3]	IC50 [6] [nM]	IC50 [7] [nM]	IC50 [8] [nM]	IC50 [9] [nM]	inhibition of growth at 0.2 µM (HCT-116 [2]) [%]	inhibition of growth at 0.2 µM (HT-29) [%]	inhibition of growth at 0.2 µM (Pfeiffer) [%]	inhibition of growth at 0.2 µM (DOHH-2) [%]	inhibition of growth at 0.2 µM (MCF7) [%]	Activity (THP-1 [4])	Activity (THP-1 [5])
CC(C)(C)NC(=O)CC[C@H](NC(=O)CCNC(=O)/C(C#N)=C/c1ccc(Cl)cc1)C(=O)N[C@@H](Cc1ccccc1)C(=O)NCc1cccc2ccccc12	–	124	–	–	–	–	26	< 20	32	34	< 20	Active	Active
CC(C)(C)NC(=O)CC[C@H](NC(=O)CCNC(=O)CCl)C(=O)N[C@@H](Cc1ccc2ccccc2c1)C(=O)NCc1cccc2ccccc12	–	535	> 40000	> 40000	–	–	21	< 20	< 20	< 20	25	Active	Active
CC(C)(C)NC(=O)CC[C@H](NC(=O)CCNC(=O)/C(C#N)=C/c1ccc(Cl)cc1)C(=O)N[C@@H](Cc1ccc2ccccc2c1)C(=O)NCc1cccc2ccccc12	–	222	–	–	–	–	< 20	< 20	28	< 20	< 20	Active	Active
COc1ccc(C[C@H](NC(=O)[C@H](C)NC(=O)CN2CCOCC2)C(=O)NC(Cc2ccccc2)C(=O)[C@@]2(C)CO2)cc1 (stereo partly drawn)	730	–	–	–	–	–	75	54	36	56	< 20	Active	Active
Cc1ccc(CNC(=O)[C@H](Cc2ccccc2)NC(=O)[C@H](CC(N)=O)NC(=O)[C@H](CNC(=O)CCl)NC(=O)CN2CCOCC2)cc1	–	> 4	–	–	> 10000	2760	–	–	–	–	–	Active	Active
CCC(=O)NCCC(=O)N[C@@H](CCC(=O)NC(C)(C)C)C(=O)N[C@@H](Cc1ccccc1)C(=O)NCc1cccc2ccccc12	–	274	–	–	–	–	< 20	< 20	< 20	< 20	< 20	Active	Active

Continued, in another order:

IC50 (HCT-116 [1]) [nM]	Ratio IC50 [3]	IC50 [6] [nM]	IC50 [7] [nM]	IC50 [8] [nM]	IC50 [9] [nM]	Compound	inhibition of growth at 0.2 µM (HCT-116 [2]) [%]	inhibition of growth at 0.2 µM (HT-29) [%]	inhibition of growth at 0.2 µM (Pfeiffer) [%]	inhibition of growth at 0.2 µM (DOHH-2) [%]	inhibition of growth at 0.2 µM (MCF7) [%]	Activity (THP-1 [4])	Activity (THP-1 [5])
460	–	–	–	–	–	Cc1ccc(CNC(=O)[C@H](Cc2ccccc2)NC(=O)[C@H](CCC(=O)NC(C)(C)C)NC(=O)[C@H](CNC(=O)CCl)NC(=O)c2cc(C)on2)cc1	83	54	30	< 20	< 20	–	–
1090	–	–	–	–	–	Cc1ccc(CNC(=O)[C@H](Cc2ccccc2)NC(=O)[C@H](CCC(=O)NC(C)(C)C)NC(=O)[C@H](CNC(=O)CCl)NS(=O)(=O)c2ccc(C)cc2)cc1	85	59	26	34	< 20	–	–
880	–	–	–	–	–	Cc1ccc(CNC(=O)[C@H](Cc2ccccc2)NC(=O)[C@H](CCC(=O)NC(C)(C)C)NC(=O)[C@H](CNC(=O)CCl)NC(=O)CCCc2ccccc2)cc1	82	53	23	25	< 20	–	–
–	36	–	–	–	–	COc1ccc(C[C@H](NC(=O)[C@H](CCC(=O)NC(C)(C)C)NC(=O)CCNC(=O)CCl)C(=O)NCc2ccc(C)cc2)cc1	29	< 20	28	< 20	< 20	Active	Active
1700	–	–	–	–	–	Cc1ccc(CNC(=O)[C@H](Cc2ccc3ccccc3c2)NC(=O)[C@H](CCC(=O)NC(C)(C)C)NC(=O)CCNC(=O)CCl)cc1	60	< 20	28	< 20	< 20	Active	Active
160	–	> 40000	> 40000	–	2.92	Cc1ccc(CNC(=O)[C@H](Cc2ccccc2)NC(=O)[C@H](CCC(=O)NC(C)(C)C)NC(=O)CCNC(=O)/C(C#N)=C/c2ccco2)cc1	76	48	< 20	23	< 20	–	–
–	113	> 40000	> 40000	–	3.82	CC(C)(C)NC(=O)CC[C@H](NC(=O)CCNC(=O)CCl)C(=O)N[C@@H](Cc1ccccc1)C(=O)NCc1cccc2ccccc12	21	< 20	< 20	< 20	< 20	Active	Active
800	–	–	–	84.1	–	Cc1ccc(CNC(=O)[C@H](Cc2ccc([N+](=O)[O-])cc2)NC(=O)[C@H](CCC(=O)NC(C)(C)C)NC(=O)CCNC(=O)CCl)cc1	58	< 20	< 20	< 20	< 20	–	–
